Source: patent US5352704A, “Guanidinobenzene derivatives” (priority 1989, dated 1994)

How the values were obtained:
[1] = related art (Virology, Raven Press, pp 323-348, 1985); cited from earlier work
[2] = system: human influenza virus A/WSN; experiment: Inhibitory action on plaque formation by human influenza virus; type: cell-based, human influenza virus A/WSN (in MDCK dog kidney cells); conditions: unidentified influenza virus, MDCK, 72 h, read-out: Inhibition ratio (%) of plaque formation
[3] = system: influenza virus A/Udron/72 (H3N2); type: in vivo, mole hamster; conditions: 10.0 mg/ml, 50 μl intranasal at 6, 11 and 24 hours after infection, 28 hours from infection, n = 5

## NC12CC3CC(CC(C3)C1)C2 [amantadine]
[1]
  efficacy on frequent use: the higher the frequency of use, the lower becomes efficacy
  side effects: teratogenicity

## N=C(N)Nc1ccc(C(=O)Nc2ccc3cc(C(=N)N)ccc3c2)cc1 [Compound B, 4-guanidinobenzoic acid 6-amidino-2-naphthylamide.2 methanesulfonate]
[2]
  inhibition at 10 µg/mL: 31.4%
  inhibition at 20 µg/mL: 67.6%
  inhibition at 50 µg/mL: 82.4%
[3]; **P < 0.01, tTest
  % Inhibition (virus in lung): 99.0%
[3]; control 4.8 ± 2.2 × 10^5
  PFU/lung: 5.0 ± 10.0 × 10^3 PFU/lung

## N=C(N)Nc1ccc(C(=O)Nc2ccc(C(=N)N)cc2)cc1 [Compound A, 4-guanidinobenzoic acid 4-amidinobenzamide.2 methanesulfonate]
[2]
  inhibition at 12.5 µg/mL: 2.9%
  inhibition at 25 µg/mL: 51%
  inhibition at 50 µg/mL: 80.8%
